{"source": "patent US20240016784A1", "about": "“Y BOX BINDING PROTEIN 1 INHIBITORS” (Oregon Health & Science University, priority 2020, published 2024)", "test_in_all_cases": "NCI-60 cell line panel", "type_in_all_cases": "cell-based", "key": {"SK-OV-3": {"system": "SK-OV-3", "conditions": "Homo sapiens, 48 hours", "text": "(§1) FIG. 17: Assay of SU056 in NCI-60 cell line panel."}, "PC-3": {"system": "PC-3", "conditions": "Homo sapiens, 48 hours", "text": "as §1"}, "MDA-MB-231/ATCC": {"system": "MDA-MB-231/ATCC", "conditions": "Homo sapiens, 48 hours", "text": "as §1"}, "OVCAR-8": {"system": "OVCAR-8", "conditions": "Homo sapiens, 48 hours", "text": "as §1"}, "BT-549": {"system": "BT-549", "conditions": "Homo sapiens, 48 hours", "text": "as §1"}, "SK-MEL-2": {"system": "SK-MEL-2", "conditions": "Homo sapiens, 48 hours", "text": "as §1"}, "SK-MEL-28": {"system": "SK-MEL-28", "conditions": "Homo sapiens, 48 hours", "text": "as §1"}, "T-47D": {"system": "T-47D", "conditions": "Homo sapiens, T47D, 48 hours", "text": "as §1"}, "HS 578T": {"system": "HS 578T", "conditions": "Homo sapiens, 48 hours", "text": "as §1"}, "SF-539": {"system": "SF-539", "conditions": "Homo sapiens, 48 hours", "text": "as §1"}, "NCI-H522": {"system": "NCI-H522", "conditions": "Homo sapiens, 48 hours", "text": "as §1"}, "HOP-62": {"system": "HOP-62", "conditions": "Homo sapiens, 48 hours", "text": "as §1"}, "COLO 205": {"system": "COLO 205", "conditions": "Homo sapiens, 48 hours", "text": "as §1"}, "KM12": {"system": "KM12", "conditions": "Homo sapiens, 48 hours", "text": "as §1"}, "NCI-H460": {"system": "NCI-H460", "conditions": "Homo sapiens, 48 hours", "text": "as §1"}, "ACHN": {"system": "ACHN", "conditions": "Homo sapiens, 48 hours", "text": "as §1"}, "SF-268": {"system": "SF-268", "conditions": "Homo sapiens, 48 hours", "text": "as §1"}, "SR": {"system": "SR", "conditions": "Homo sapiens, 48 hours", "text": "as §1"}, "RXF 393": {"system": "RXF 393", "conditions": "Homo sapiens, 48 hours", "text": "as §1"}, "TK-10": {"system": "TK-10", "conditions": "Homo sapiens, 48 hours", "text": "as §1"}, "HL-60(TB)": {"system": "HL-60(TB)", "conditions": "Homo sapiens, 48 hours", "text": "as §1"}, "NCI-H322M": {"system": "NCI-H322M", "conditions": "Homo sapiens, 48 hours", "text": "as §1"}, "HCT-15": {"system": "HCT-15", "conditions": "Homo sapiens, 48 hours", "text": "as §1"}, "OVCAR-4": {"system": "OVCAR-4", "conditions": "Homo sapiens, 48 hours", "text": "as §1"}, "HOP-92": {"system": "HOP-92", "conditions": "Homo sapiens, 48 hours", "text": "as §1"}, "CAKI-1": {"system": "CAKI-1", "conditions": "Homo sapiens, 48 hours", "text": "as §1"}, "LOX IMVI": {"system": "LOX IMVI", "conditions": "Homo sapiens, 48 hours", "text": "as §1"}, "SF-295": {"system": "SF-295", "conditions": "Homo sapiens, 48 hours", "text": "as §1"}, "UO-31": {"system": "UO-31", "conditions": "Homo sapiens, 48 hours", "text": "as §1"}}}
{"molecule": "O=C1OCC2=C1C(c1cccc(F)c1)c1cc3c(cc1N2CCO)OCO3", "note": "(centres unmarked) [SU056, 9-(3-fluorophenyl)-5-(2-hydroxyethyl)-6,9-dihydro-[1,3]dioxolo[4,5-g]furo[3,4-b]quinolin-8(5H)-one]", "values": [{"measurement": "IC50", "setting": "SK-OV-3", "result": 1730, "unit": "nM"}, {"measurement": "IC50", "setting": "PC-3", "result": 1460, "unit": "nM"}, {"measurement": "IC50", "setting": "MDA-MB-231/ATCC", "result": 3090, "unit": "nM"}, {"measurement": "IC50", "setting": "OVCAR-8", "result": 3180, "unit": "nM"}, {"measurement": "IC50", "setting": "BT-549", "result": 1460, "unit": "nM"}, {"measurement": "IC50", "setting": "SK-MEL-2", "result": 2460, "unit": "nM"}, {"measurement": "IC50", "setting": "SK-MEL-28", "result": 20300, "unit": "nM"}, {"measurement": "IC50", "setting": "T-47D", "result": 2180, "unit": "nM"}, {"measurement": "IC50", "setting": "HS 578T", "result": 1420, "unit": "nM"}, {"measurement": "IC50", "setting": "SF-539", "result": 1130, "unit": "nM"}, {"measurement": "IC50", "setting": "NCI-H522", "result": 2590, "unit": "nM"}, {"measurement": "IC50", "setting": "HOP-62", "result": 2190, "unit": "nM"}, {"measurement": "IC50", "setting": "COLO 205", "result": 1460, "unit": "nM"}, {"measurement": "IC50", "setting": "KM12", "result": 1480, "unit": "nM"}, {"measurement": "IC50", "setting": "NCI-H460", "result": 2080, "unit": "nM"}, {"measurement": "IC50", "setting": "ACHN", "result": 3030, "unit": "nM"}, {"measurement": "IC50", "setting": "SF-268", "result": 3200, "unit": "nM"}, {"measurement": "IC50", "setting": "SR", "result": 294, "unit": "nM"}, {"measurement": "IC50", "setting": "RXF 393", "result": 1510, "unit": "nM"}, {"measurement": "IC50", "setting": "TK-10", "result": 15600, "unit": "nM"}, {"measurement": "IC50", "setting": "HL-60(TB)", "result": 1260, "unit": "nM"}, {"measurement": "IC50", "setting": "NCI-H322M", "result": 4010, "unit": "nM"}, {"measurement": "IC50", "setting": "HCT-15", "result": 1080, "unit": "nM"}, {"measurement": "IC50", "setting": "OVCAR-4", "result": 46800, "unit": "nM"}, {"measurement": "IC50", "setting": "HOP-92", "result": 3100, "unit": "nM"}, {"measurement": "IC50", "setting": "CAKI-1", "result": 1240, "unit": "nM"}, {"measurement": "IC50", "setting": "LOX IMVI", "result": 2350, "unit": "nM"}, {"measurement": "IC50", "setting": "SF-295", "result": 1200, "unit": "nM"}, {"measurement": "IC50", "setting": "UO-31", "result": 2880, "unit": "nM"}]}
